Activity calls are given as the source filed them. The calls are words filed in the database; no cut-off is given here.
Columns and labels:
[1] = Toxicity in male Sprague-Dawley rat assessed as catalepsy at 1.5 mg/kg, ip measured after 100 mins; type: organism-based; conditions: in vivo, 1.667 h
[2] = Initial plasma concentration in male dog; type: ADME, Canis lupus familiaris; conditions: read-out: C0
[3] = Unbound initial plasma concentration in male dog; type: ADME, Canis lupus familiaris
[4] = target: T1, Metabotropic glutamate receptor 1 (Homo sapiens, UniProt Q13255); assay: Positive allosteric modulation of human mGlu1
[5] = target: Metabotropic glutamate receptor 2 (Rattus norvegicus, UniProt P31421); assay: Positive allosteric modulation of rat mGlu2 receptor
Sequence of Metabotropic glutamate receptor 2 (Rattus norvegicus, UniProt P31421) (P31421 whole entry): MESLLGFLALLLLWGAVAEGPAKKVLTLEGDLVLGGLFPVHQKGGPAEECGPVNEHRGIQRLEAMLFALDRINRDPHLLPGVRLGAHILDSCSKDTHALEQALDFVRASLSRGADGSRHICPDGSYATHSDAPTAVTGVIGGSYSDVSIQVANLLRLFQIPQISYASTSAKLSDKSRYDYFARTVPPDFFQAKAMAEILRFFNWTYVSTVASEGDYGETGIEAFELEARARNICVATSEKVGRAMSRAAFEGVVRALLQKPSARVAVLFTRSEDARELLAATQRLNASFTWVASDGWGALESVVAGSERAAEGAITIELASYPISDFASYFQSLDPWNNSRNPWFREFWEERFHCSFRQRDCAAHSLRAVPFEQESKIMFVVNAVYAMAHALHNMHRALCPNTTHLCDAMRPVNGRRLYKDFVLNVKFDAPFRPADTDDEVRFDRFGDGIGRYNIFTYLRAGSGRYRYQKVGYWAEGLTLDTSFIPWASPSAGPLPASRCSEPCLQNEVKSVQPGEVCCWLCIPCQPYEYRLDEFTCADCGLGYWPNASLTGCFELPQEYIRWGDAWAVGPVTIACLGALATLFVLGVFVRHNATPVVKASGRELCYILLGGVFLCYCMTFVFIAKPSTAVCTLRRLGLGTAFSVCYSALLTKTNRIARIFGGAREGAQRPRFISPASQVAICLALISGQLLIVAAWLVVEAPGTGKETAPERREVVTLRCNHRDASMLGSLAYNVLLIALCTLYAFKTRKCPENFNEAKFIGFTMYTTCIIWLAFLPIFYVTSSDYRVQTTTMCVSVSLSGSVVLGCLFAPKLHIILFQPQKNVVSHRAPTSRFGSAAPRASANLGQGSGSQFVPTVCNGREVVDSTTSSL

[6] = target: Metabotropic glutamate receptor 2 (Homo sapiens, UniProt Q14416); assay: Positive allosteric modulation of human mGlu2 receptor
[7] = target: Metabotropic glutamate receptor 3 (Homo sapiens, UniProt Q14832); assay: Positive allosteric modulation of human mGlu3 receptor
[8] = target: Metabotropic glutamate receptor 4 (Homo sapiens, UniProt Q14833); assay: Positive allosteric modulation of human mGlu4 receptor
Sequence of Metabotropic glutamate receptor 4 (Homo sapiens, UniProt Q14833) (Q14833 whole entry): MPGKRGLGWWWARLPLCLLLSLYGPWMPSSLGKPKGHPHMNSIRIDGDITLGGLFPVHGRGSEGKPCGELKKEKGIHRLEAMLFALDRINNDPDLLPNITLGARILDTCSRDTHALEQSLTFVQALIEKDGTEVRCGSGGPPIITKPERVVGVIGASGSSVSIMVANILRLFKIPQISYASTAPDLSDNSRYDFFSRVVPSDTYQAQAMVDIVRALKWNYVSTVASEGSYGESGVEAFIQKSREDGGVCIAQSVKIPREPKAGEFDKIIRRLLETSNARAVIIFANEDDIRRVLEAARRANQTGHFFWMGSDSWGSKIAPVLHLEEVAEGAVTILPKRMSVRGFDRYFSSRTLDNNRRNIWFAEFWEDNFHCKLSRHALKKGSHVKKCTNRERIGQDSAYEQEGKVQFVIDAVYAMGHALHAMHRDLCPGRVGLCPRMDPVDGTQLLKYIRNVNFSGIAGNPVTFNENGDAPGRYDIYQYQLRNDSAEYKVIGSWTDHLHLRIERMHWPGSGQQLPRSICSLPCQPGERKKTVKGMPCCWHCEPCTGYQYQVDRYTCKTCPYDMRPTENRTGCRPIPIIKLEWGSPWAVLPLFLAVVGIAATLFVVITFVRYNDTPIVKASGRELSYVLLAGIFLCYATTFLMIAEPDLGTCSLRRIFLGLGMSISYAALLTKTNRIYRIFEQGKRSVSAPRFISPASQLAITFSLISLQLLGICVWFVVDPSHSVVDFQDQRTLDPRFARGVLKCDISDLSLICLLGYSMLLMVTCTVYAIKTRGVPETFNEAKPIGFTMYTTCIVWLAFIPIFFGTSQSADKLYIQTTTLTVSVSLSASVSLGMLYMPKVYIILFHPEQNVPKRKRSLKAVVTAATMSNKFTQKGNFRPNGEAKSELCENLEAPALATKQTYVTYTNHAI

[9] = target: Metabotropic glutamate receptor 5 (Homo sapiens, UniProt P41594); assay: Positive allosteric modulation of human mGlu5 receptor
[10] = target: Metabotropic glutamate receptor 7 (Homo sapiens, UniProt Q14831); assay: Positive allosteric modulation of human mGlu7 receptor
[11] = target: Metabotropic glutamate receptor 8 (Homo sapiens, UniProt O00222); assay: Positive allosteric modulation of human mGlu8 receptor
Sequence of Metabotropic glutamate receptor 8 (Homo sapiens, UniProt O00222) (O00222 whole entry): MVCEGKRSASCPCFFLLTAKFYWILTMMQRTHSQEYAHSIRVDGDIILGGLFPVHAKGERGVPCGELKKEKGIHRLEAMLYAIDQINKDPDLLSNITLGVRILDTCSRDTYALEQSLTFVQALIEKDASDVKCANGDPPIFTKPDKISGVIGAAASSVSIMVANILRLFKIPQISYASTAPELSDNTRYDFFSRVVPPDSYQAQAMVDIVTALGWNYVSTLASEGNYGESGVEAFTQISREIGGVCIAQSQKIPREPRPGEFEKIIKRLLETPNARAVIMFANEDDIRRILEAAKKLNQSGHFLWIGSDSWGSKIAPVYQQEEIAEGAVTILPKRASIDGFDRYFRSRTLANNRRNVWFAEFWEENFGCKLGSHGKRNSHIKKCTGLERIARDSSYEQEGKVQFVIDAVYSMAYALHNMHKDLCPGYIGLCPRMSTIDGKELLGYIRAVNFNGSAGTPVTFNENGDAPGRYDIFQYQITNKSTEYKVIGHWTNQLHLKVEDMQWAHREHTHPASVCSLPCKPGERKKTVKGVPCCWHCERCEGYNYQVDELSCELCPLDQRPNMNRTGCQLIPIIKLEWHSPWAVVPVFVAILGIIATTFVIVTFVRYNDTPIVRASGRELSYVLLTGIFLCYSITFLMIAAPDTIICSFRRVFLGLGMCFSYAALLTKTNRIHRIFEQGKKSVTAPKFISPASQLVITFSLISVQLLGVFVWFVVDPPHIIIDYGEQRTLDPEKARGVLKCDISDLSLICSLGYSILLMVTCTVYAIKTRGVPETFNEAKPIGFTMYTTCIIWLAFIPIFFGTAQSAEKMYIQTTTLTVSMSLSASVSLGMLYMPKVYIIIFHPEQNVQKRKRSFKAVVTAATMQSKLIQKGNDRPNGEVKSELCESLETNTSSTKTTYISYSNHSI

[12] = target: Metabotropic glutamate receptor 3 (Rattus norvegicus, UniProt P31422); assay: Positive allosteric modulation of rat mGlu3 receptor
Sequence of Metabotropic glutamate receptor 3 (Rattus norvegicus, UniProt P31422) (P31422 whole entry): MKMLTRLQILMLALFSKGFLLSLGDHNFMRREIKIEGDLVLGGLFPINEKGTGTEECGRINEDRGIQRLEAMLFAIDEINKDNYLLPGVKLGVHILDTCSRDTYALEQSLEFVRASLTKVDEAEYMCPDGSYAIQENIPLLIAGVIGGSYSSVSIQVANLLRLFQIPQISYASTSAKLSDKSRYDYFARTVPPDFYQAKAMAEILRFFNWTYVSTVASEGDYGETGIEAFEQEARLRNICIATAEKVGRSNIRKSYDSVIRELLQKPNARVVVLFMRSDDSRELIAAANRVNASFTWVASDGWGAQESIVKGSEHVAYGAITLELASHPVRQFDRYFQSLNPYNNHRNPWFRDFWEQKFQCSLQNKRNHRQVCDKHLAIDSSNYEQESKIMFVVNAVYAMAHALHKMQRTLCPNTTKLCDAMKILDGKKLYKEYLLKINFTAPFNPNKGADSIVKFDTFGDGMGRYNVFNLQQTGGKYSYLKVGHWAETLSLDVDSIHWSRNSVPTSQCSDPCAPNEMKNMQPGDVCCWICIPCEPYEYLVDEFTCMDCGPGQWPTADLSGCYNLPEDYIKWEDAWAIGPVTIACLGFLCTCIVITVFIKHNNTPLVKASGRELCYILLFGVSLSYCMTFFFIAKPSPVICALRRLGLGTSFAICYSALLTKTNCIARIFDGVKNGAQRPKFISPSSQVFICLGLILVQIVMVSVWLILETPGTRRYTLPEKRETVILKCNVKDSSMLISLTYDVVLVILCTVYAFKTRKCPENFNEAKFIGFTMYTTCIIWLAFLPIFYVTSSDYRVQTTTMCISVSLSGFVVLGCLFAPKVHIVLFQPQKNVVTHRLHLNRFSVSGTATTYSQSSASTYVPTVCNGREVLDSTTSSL

[13] = target: Metabotropic glutamate receptor 4 (Rattus norvegicus, UniProt P31423); assay: Positive allosteric modulation of rat mGlu4 receptor
[14] = target: Metabotropic glutamate receptor 5 (Rattus norvegicus, UniProt P31424); assay: Positive allosteric modulation of rat mGlu5 receptor
[15] = target: Metabotropic glutamate receptor 7 (Rattus norvegicus, UniProt P35400); assay: Positive allosteric modulation of rat mGlu7 receptor
[16] = target: Metabotropic glutamate receptor 8 (Rattus norvegicus, UniProt P70579); assay: Positive allosteric modulation of rat mGlu8 receptor
[17] = target: T1, Metabotropic glutamate receptor 1; assay: Agonist activity at mGlu1 receptor (unknown origin) upto 30 uM; type: functional
Target sequence in this assay (Q13255 19-1194 limits assumed): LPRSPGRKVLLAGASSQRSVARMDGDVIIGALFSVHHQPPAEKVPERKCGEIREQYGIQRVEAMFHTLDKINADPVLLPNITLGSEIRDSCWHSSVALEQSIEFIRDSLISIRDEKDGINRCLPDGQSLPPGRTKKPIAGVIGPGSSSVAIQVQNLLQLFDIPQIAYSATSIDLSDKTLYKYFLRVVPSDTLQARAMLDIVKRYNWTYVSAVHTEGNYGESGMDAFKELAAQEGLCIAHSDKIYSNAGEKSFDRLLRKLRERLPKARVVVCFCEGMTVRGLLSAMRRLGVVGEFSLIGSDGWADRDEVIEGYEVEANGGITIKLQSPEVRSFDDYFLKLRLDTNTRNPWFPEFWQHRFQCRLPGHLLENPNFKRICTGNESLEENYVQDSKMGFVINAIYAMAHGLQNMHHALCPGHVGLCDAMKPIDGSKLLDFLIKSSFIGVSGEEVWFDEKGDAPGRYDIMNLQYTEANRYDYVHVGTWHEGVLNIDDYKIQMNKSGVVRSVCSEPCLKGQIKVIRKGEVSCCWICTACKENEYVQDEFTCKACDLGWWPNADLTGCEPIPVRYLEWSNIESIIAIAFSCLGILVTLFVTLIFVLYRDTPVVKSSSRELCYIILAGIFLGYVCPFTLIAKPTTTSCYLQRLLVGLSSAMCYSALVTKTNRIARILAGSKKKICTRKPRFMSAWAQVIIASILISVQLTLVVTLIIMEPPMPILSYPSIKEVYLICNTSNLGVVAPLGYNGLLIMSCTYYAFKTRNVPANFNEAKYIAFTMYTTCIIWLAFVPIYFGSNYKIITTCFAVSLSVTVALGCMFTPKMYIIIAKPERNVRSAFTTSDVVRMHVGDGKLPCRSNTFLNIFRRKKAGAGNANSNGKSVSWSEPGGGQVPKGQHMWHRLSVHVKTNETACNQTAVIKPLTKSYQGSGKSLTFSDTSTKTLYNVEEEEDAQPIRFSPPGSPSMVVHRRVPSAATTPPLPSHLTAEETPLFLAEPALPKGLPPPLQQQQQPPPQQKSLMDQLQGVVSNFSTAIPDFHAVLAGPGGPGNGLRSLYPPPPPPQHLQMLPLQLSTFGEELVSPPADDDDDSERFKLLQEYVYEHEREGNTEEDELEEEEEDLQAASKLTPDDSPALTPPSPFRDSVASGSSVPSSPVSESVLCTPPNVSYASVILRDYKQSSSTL

[18] = target: T1, Metabotropic glutamate receptor 1; assay: Positive allosteric modulation of mGlu1 receptor (unknown origin) in presence of glutamate at EC20 concentration; conditions: filed as positive allosteric modulator
Target sequence in this assay (Q13255 19-1194 limits assumed): as above

[19] = target: T1, Metabotropic glutamate receptor 1; assay: Antagonist activity at mGlu1 receptor (unknown origin) assessed as desensitization of receptor at EC80 concentration; conditions: filed as antagonist
Target sequence in this assay (Q13255 19-1194 limits assumed): as above

[20] = Antagonist activity at peripheral Benzodiazepine receptor (unknown origin); design: species or system Homo sapiens
[21] = Mutagenicity in Salmonella typhimurium by Ames test; type: toxicity; conditions: salmonella enterica subsp. enterica serovar typhimurium
[22] = Stability of compound at pH 2.2; type: physicochemical; conditions: buffer
[23] = Stability of compound at pH 7.4; type: physicochemical; conditions: buffer
[24] = Drug metabolism in human liver microsomes assessed as furanyl ring oxidation incubated for 60 mins; type: ADME, Microsome; conditions: 1 h
[25] = Drug metabolism in human liver microsomes assessed as furanyl ring opening incubated for 60 mins; type: ADME, Microsome; conditions: 1 h
[26] = Drug metabolism in rat liver microsomes assessed as furanyl ring oxidation incubated for 60 mins; type: ADME, Microsome; conditions: 1 h
[27] = Drug metabolism in rat liver microsomes assessed as furanyl ring opening incubated for 60 mins; type: ADME, Microsome; conditions: 1 h
[28] = Glutathione reactivity in rat liver microsomes incubated for 1 hr in presence of glutathione; type: ADME, Microsome
[29] = Glutathione reactivity in human liver microsomes incubated for 1 hr in presence of glutathione; type: ADME, Microsome
[30] = Unbound brain concentration in male Sprague-Dawley rat at 3 mg/kg, po in 10% tween 80 formulation measured at 15 to 420 mins by LC-MS/MS analysis; type: ADME, organism-based; conditions: in vivo, time 15-420 min
[31] = Toxicity in male Sprague-Dawley rat assessed as catalepsy at 1 to 10 mg/kg, po measured after 60 mins; type: organism-based; conditions: in vivo, 1 h, dose 1-10 mg/kg
[32] = system: Rattus norvegicus; assay: Antipsychotic efficacy against MK-801-induced po dosed male Sprague-Dawley rat assessed as reversal of MK-801 disruption by measuring recognition index measured after 30 mins by novel object recognition test; type: functional, organism-based; conditions: dose 1-10 mg/kg
[33] = system: Rattus norvegicus; assay: Antipsychotic efficacy against amphetamine-induced hyperlocomotion in male Sprague-Dawley rat assessed as reversal of hyperlocomotive state administered orally pretreated with compound followed by amphetamine addition and measured after 90 mins; type: functional, organism-based; conditions: dose 1-10 mg/kg, route po
[34] = Unbound brain concentration in amphetamine-induced hyperlocomotion male Sprague-Dawley rat model at 3 mg/kg, po pretreated for 2.5 hrs; type: ADME, organism-based; conditions: in vivo
[35] = system: Mus musculus; assay: Antipsychotic efficacy against amphetamine-induced hyperlocomotion in male C57Bl/6 mouse assessed as reversal of hyperlocomotive state administered ip and pretreated with compound followed by amphetamine addition for 60 mins and measured after 90 mins; type: functional, organism-based; conditions: dose 3-30 mg/kg
[36] = Unbound brain concentration in amphetamine-induced hyperlocomotion male Sprague-Dawley rat model at 3 mg/kg, po measured after 2.5 hrs; type: ADME, organism-based; conditions: in vivo
[37] = Unbound brain concentration in amphetamine-induced hyperlocomotion male Sprague-Dawley rat model at 10 mg/kg, po measured after 6.5 hrs; type: ADME, organism-based; conditions: in vivo
[38] = system: Rattus norvegicus; assay: Antipsychotic activity in male Sprague-Dawley rat assessed as reduction in amphetamine-induced locomotor activity by measuring reversal of total ambulation at 3 mg/kg, po pretreated for 1 hrs followed by amphetamine addition and measured at 95 to 180 mins relative to control; type: functional; design: scale not given: the % may be the effect or the level left
[39] = Unbound brain concentration in amphetamine-induced hyperlocomotion male Sprague-Dawley rat model at 3 mg/kg, po; type: ADME, organism-based; conditions: in vivo
[40] = system: Rattus norvegicus; assay: Antipsychotic activity in male Sprague-Dawley rat assessed as reduction in amphetamine-induced locomotor activity by measuring reversal of total ambulation at 10 mg/kg, po pretreated for 5 hrs followed by amphetamine addition and measured at 95 to 180 mins relative to control; type: functional; design: scale not given: the % may be the effect or the level left
[41] = Unbound brain concentration in amphetamine-induced hyperlocomotion male Sprague-Dawley rat model at 10 mg/kg, po; type: ADME, organism-based; conditions: in vivo
[42] = Cmax in amphetamine-induced male Sprague-Dawley rat model at 60 mg/kg and measured at 3.33 hrs post administration; type: ADME, organism-based; conditions: in vivo
[43] = Toxicity in male Wistar rat assessed as increase in motor activity at 10 mg/kg, po measured at 120 mins post treatment by EEG analysis; type: organism-based; conditions: in vivo, 2 h
[44] = Toxicity in male Wistar rat assessed as change in body temperature at 10 mg/kg, po measured at 120 mins post treatment by EEG analysis; type: organism-based; conditions: in vivo, 2 h
[45] = Toxicity in male Wistar rat assessed as improvement in sleep-wake profile by measuring active wake state at 10 mg/kg, po measured at 120 mins post treatment by EEG analysis; type: organism-based; conditions: in vivo, 2 h
[46] = Toxicity in male Wistar rat assessed as improvement in sleep-wake profile by measuring quiet wake state at 10 mg/kg, po measured at 120 mins post treatment by EEG analysis; type: organism-based; conditions: in vivo, 2 h
[47] = Toxicity in male Wistar rat assessed as reduction in non rapid eye movement sleep at 1 to 10 mg/kg, po measured at 30 to 120 mins post treatment by EEG analysis; type: organism-based; conditions: in vivo, dose lower 1 mg/kg, time lower 30 min, dose upper 10 mg/kg, time upper 120 min
[48] = Toxicity in male Wistar rat assessed as reduction in rapid eye movement sleep at 1 to 10 mg/kg, po measured at 30 to 120 mins post treatment by EEG analysis; type: organism-based; conditions: in vivo, dose lower 1 mg/kg, time lower 30 min, dose upper 10 mg/kg, time upper 120 min
[49] = Toxicity in male Wistar rat assessed as reduction in delta power at 10 mg/kg, po measured at 60 to 240 mins post treatment by EEG analysis; type: organism-based; conditions: in vivo, time 60-240 min
[50] = Toxicity in male Wistar rat assessed as reduction in alpha power at 10 mg/kg, po measured at 60 to 240 mins post treatment by EEG analysis; type: organism-based; conditions: in vivo, time 60-240 min
[51] = Toxicity in male Wistar rat assessed as reduction in beta power at 10 mg/kg, po measured at 60 to 240 mins post treatment by EEG analysis; type: organism-based; conditions: in vivo, time 60-240 min
[52] = system: Mus musculus; assay: Reversal of MK-801 induced deficits in sc dosed male C57BL/6JRj mouse model assessed as 40 Hz ASSR in prefrontal cortex measured after 15 mins; type: functional, organism-based; conditions: dose 0.8-3 mg/kg
[53] = system: Mus musculus; assay: Reversal of MK-801 induced deficits in male C57BL/6JRj mouse model assessed as 40 Hz ASSR in prefrontal cortex at 0.8 mg/kg, sc measured after 15 mins; type: functional, organism-based
[54] = system: Mus musculus; assay: Reversal of MK-801 induced deficits in male C57BL/6JRj mouse model assessed as 40 Hz ASSR in prefrontal cortex at 4 to 10 mg/kg, sc measured after 15 mins; type: functional, organism-based; conditions: dose 4-10 mg/kg
[55] = system: Mus musculus; assay: Reversal of MK-801 induced N1 sensory gating deficit in male C57BL/6JRj mouse model assessed as improvement in cognitive deficits at 10 mg/kg, sc; type: functional, organism-based
[56] = Unbound initial plasma concentration in male dog at 0.5 mg/kg, iv; type: ADME, organism-based, Canis lupus familiaris; conditions: in vivo

SMILES: O=C(CCCN1CCC(O)(c2ccc(Cl)cc2)CC1)c1ccc(F)cc1 [HALOPERIDOL]
- Activity [1]: Toxic

SMILES: Cc1ccc2c(c1)C(=O)N(c1ccc(NC(=O)c3occc3C)c(F)c1)C2=O
- concentration [2]: 1100 nM
- C0(unbound) [3]: 36.4 nM
- EC50 [4]: 0.013 µM

SMILES: Cn1nc(-c2ccnn2C)cc1CNC(=O)c1cc(-c2ccco2)ccc1Cl
- EC50 [5]: > 30 µM
- EC50 [6]: > 30 µM
- EC50 [7]: > 30 µM
- EC50 [8]: > 30 µM
- EC50 [9]: > 30 µM
- EC50 [10]: > 30 µM
- EC50 [11]: > 30 µM
- EC50 [12]: > 30 µM
- EC50 [13]: > 30 µM
- EC50 [14]: > 30 µM
- EC50 [15]: > 30 µM
- EC50 [16]: > 30 µM
- Activity [17]: inactive
- Activity [18]: Active
- Activity [19]: Active; Slight Desensitization Was Observed
- IC50 [20]: 0.207 µM
- Activity [21]: Non-toxic
- Stability [22]: Stable
- Stability [23]: Stable
- Drug metabolism [24]: metabolite_notdetected
- Drug metabolism [25]: metabolite_notdetected
- Drug metabolism [26]: metabolite_notdetected
- Drug metabolism [27]: metabolite_notdetected
- Drug metabolism [28]: metabolite_detected
- Drug metabolism [29]: metabolite_detected
- Drug uptake(free) [30]: 100 nM
- Activity [31]: Non-toxic
- Activity [32]: Dose-dependent-effect
- Activity [33]: Dose-dependent-effect
- Drug uptake(free) [34]: 32 nM
- Activity [35]: Dose-dependent-effect
- Drug uptake(free) [36]: 40 nM
- Drug uptake(free) [37]: 44 nM
- Activity [38]: 27.3%
- Drug uptake(free) [39]: 40 nM
- Activity [40]: 25.1%
- Drug uptake(free) [41]: 44 nM
- Cmax [42]: 313 nM
- Activity [43]: Non-toxic
- Activity [44]: Non-toxic
- Activity [45]: Non-toxic
- Activity [46]: Non-toxic
- Activity [47]: Non-toxic
- Activity [48]: Non-toxic
- Activity [49]: Non-toxic
- Activity [50]: Non-toxic
- Activity [51]: Non-toxic
- Activity [52]: Active
- Activity [53]: inactive
- Activity [54]: Active
- Activity [55]: Active
- C0(unbound) [56]: 80 nM
